Measured values taken from patent US20190358345A1, “A[…]-IN[…] NANOPARTICLES AND PREPARATION METHODS THEREFOR” (CHINA PHARMACEUTICAL UNIVERSITY, priority 2017, published 2019).

Assay: Dynamic light scattering of nanoparticles
Format: physicochemical
Details: self-assembled in aqueous solution
Description: The foregoing amphiphilic nonsteroid anti-inflammatory platinum is dissolved in DMF, dropped into an aqueous solution at room temperature, and the DMF is removed by dialysis to obtain an amphiphilic nonsteroid anti-inflammatory platinum nanoparticle solution. The dynamic light scattering results of the antitumor cisplatin-tonifamic acid nanoparticles prepared in this embodiment are shown in FIG. 3, and the means particle size of the nanoparticles is 157 nm.
CDDP (150 mg), AgNO3 (113 mg), tolfenamic acid (131 mg) and Na2CO3 (35.3 mg) are added to a round-bottom flask, then 10 ml of water is added and stirred at room temperature for 24 h in a dark place. The AgCl precipitate is centrifugally discarded, and the filtrate is dried in vacuum. The crude product is purified by silica gel column chromatography using an eluent of methanol:chloroform=1:9 to obtain the cisplatin-tolfenamic acid-based complex in a yield of 53%. The chemical structure of the complex synthesized in this embodiment is as shown in Formula 1. […]

Cc1c(Cl)cccc1[N]1c2ccccc2C(=O)[O][Pt]1([NH2])[NH2] [Embodiment 1, cisplatin-tolfenamic acid-based complex]
means particle size of the nanoparticles: 157 nm
